Results published in patent US8975234B2, “Anti-bacterial infection, inflammation, and leukemia composition and use thereof” (priority 2011, dated 2015).

Columns and labels:
[1] = DPPH scavenging assay
Experimental: Test reagents, natural extracts and Vitamin C (ascorbic acid) were dissolved in methanol to make a stock solution 10×. Vitamin C was used as the positive control. 120 μM DPPH solution was prepared. Taken 20 μL of stock reagents, natural extracts and Vitamin C on a 96-well microplate, and methanol was added to make up to the total volume of 100 μL. Control was 100 μL methanol. Each sample was mixed with 100 μL DPPH solution and incubated in the dark for 40 minutes. DPPH level of each well was evaluated by detecting the optical density of each well at 517 nm and the results were shown in Table 5.

[2] = system: human embryonic kidney cell line HEK 293; test: Cell viability assay (alamarBlue); assay type: cell-based; conditions: 40 μg/mL, 24 hours
Experimental: (§1) Cell viability was measured using alamarBlue. For cell viability assays, human embryonic kidney cell line HEK 293 and human hepatoma cell line Hep G2 were plated 180 μL in each well on a 96-well plate (for HEK 293, at a density of about 10,000 cells/well; for Hep G2, at a density of about 7500 cells/well). The cells were grown overnight (16˜18 hours) and left to attach. After overnight incubation, 20 μL of Tellimagrandin II was added to give final concentrations of 0, 20, 30, 40 and 50 μg/mL. The cultures with 0 μg/mL Tellimagrandin II and without adding additional drug (medium only) were as controls. The cells are then incubated in a 5% CO2, 37° C. incubator for 24 hours. After 24 hours, 100 μL of alamarBlue was added to each well, and cultured in a 5% CO2, 37° C. incubator for 4 hours. Absorbance was monitored at 570 nm and 600 nm and cell viability was determined.

[3] = system: human hepatoma cell line Hep G2; test: Cell viability assay (alamarBlue); assay type: cell-based; conditions: 40 μg/mL, 24 hours
Experimental: as §1

[4] = system: MRSA 18631; test: Minimum inhibitory concentration (broth microdilution) and FIC index; assay type: cell-based, Staphylococcus aureus; conditions: Staphylococcus aureus, MRSA, read-out: Minimum inhibitory concentration
Experimental: (§2) A serial of twofold dilution of the tested antibiotics (oxacillin, erythromycin, ampicillin, kanamycin, levofoxacin, vancomycin and doxycycline) was perform by Broth microdilution method to a final concentration of 2-512 μg/mL. The bacterial overnight culture was collected and re-suspended in the Muller-Hilton (M-H) broth. An aliquot of cell suspension (OD600=0.1) was prepared. The bacterial suspensions were plated in 96-well plate and incubated with test antibiotics at 37° C. in a 5% CO2 incubator (Table 1 to Table 4).
(§3) The […], […] and antagonism between two drugs was evaluated by the following formula:
(§4) [formula] The criteria of fractional inhibitory concentration index: […]

[5] = system: MRSA 18271; test: as above; assay type: cell-based, Staphylococcus aureus; conditions: Staphylococcus aureus, MRSA, read-out: Minimum inhibitory concentration
Experimental: as §2, §3, §4

[6] = system: MRSA 19615; test: as above; assay type: cell-based, Staphylococcus aureus; conditions: Staphylococcus aureus, MRSA, read-out: Minimum inhibitory concentration
Experimental: as §2, §3, §4

[7] = system: MSSA (Methicillin-susceptible Staphylococcus aureus); test: as above; assay type: cell-based; conditions: Staphylococcus aureus, MSSA, read-out: Minimum inhibitory concentration
Experimental: as §2, §3, §4

[8] = system: K-562 cells; test: Apoptosis detection test (TUNEL); assay type: cell-based, human; conditions: 30 μM, 48 hours
Experimental: TUNEL test was used to detect any DNA fragmentation to determine if cell enters apoptosis process.
A total of 10 mL cell solution at the concentration of 1×10^6K-562 cells per mL was cultured with 10 cm cell culture dishes in an incubator supplied with 5% CO2 at 37° C. for 30 minutes so that cells could adapt to the environment. Tellimagrandin II solutions of different concentrations were added by order so that the final concentrations are 0, 10, 20, 30, 40 and 50 μM respectively. The solution was placed in incubator with 5% CO2 at 37° C. for 48 hours before being centrifuged at 3,500 rpm at 4° C. for 5 minutes. After removing the supernatant, the cells were rinsed by PBS once. A total of 1 mL 1% Trioxane (diluted from 10% Trioxane solution with PBS) was added and the solution was left to react at room temperature for 30 minutes to one hour. Then, the solution was centrifuged at 3,500 rpm at 4° C. for 5 minutes. After removing the supernatant, 70% ethanol was added and the solution was placed at −20° C. for 16-18 hours for cell fixation.
After cell fixation, the solution was centrifuged at 400 rpm at 4° C. for 10 minutes before removing the supernatant. […] Finally, 1 mL PBS was used to resuspend the cells before BD FACS can was used to detect the fluorescent signal and the quantitative results are in FIG. 15. […]

[9] = system: Heme oxygenase-1 (HO-1) in RAW264.7 cells; test: Western blot analysis of Heme oxygenase-1 (HO-1); assay type: cell-based, mouse; conditions: 25 or 50 μM with LPS, 24 hours
Experimental: The murine macrophage RAW264.7 cells were plated in 6 cm cell dishes at a seeding density of 5×10^6 cells/mL and incubated overnight. After overnight incubation, cells were treated with different concentrations of Tellimagrandin II (10, 25 and 50 μM) and LPS and incubated for 24 hours. Cells were washed twice with PBS, scraped and lysed on ice in RIPA buffer, and proteins were obtained. Heme oxygenase-1 expression was analyzed by Western blotting of the whole cell lysates. […] In FIG. 12, the first bar represents the control group, the second bar represents the test group with LPS only and the third, the fourth and fifth bars represent the test groups with 10, 25 and 50 […] Tellimagrandin II (N=3, Mean±SD).

With `O=C(OC1O[C@@H]2COC(=O)c3cc(O)c(O)c(O)c3-c3c(cc(O)c(O)c3O)C(=O)O[C@H]2[C@H](OC(=O)c2cc(O)c(O)c(O)c2)[C@H]1OC(=O)c1cc(O)c(O)c(O)c1)c1cc(O)c(O)c(O)c1` (stereo partly drawn) [Tellimagrandin II] the “DPPH free-radical scavenging activity” value ([1]; 20 μg/mL, +FeCl2 (50 μM)) was 56.61 ± 4.05%, the “DPPH free-radical scavenging activity” value ([1]; 20 μg/mL, −FeCl2) was 80.52 ± 0.4% and the “DPPH free-radical scavenging activity” value ([1]; 40 μg/mL, +FeCl2 (50 μM)) was 57.43 ± 2.49%. For the same molecule, the “DPPH free-radical scavenging activity” value ([1]; 40 μg/mL, −FeCl2) was 79.47 ± 0.2%, the Cell viability [2] was “at least 80%” and the Cell viability [3] was “at least 80%”. It also gave an MIC [4] of 128 µg/mL, an MIC [5] of 128 µg/mL and an MIC [6] of 128 µg/mL. The MIC [7] was 64 µg/mL, the “DNA fragmentation, TUNEL fluorescent signal” value [8] was “fluorescent signals were detected” and the “Heme oxygenase-1 expression” value [9] was “significant increases”.
